Where “and” joins values, the source holds several entries; their conditions need not be identical. Equal entries are not always repeated. Inconclusive results and toxic doses are left out.
Test system: BDF1 mice, P388 leukemia ip, median survival T/C
Assay: NCI In Vivo Anticancer Drug Screen. Data for tumor model P388 Leukemia (intraperitoneal) in B6D2F1 (BDF1) mice
Conditions: endpoint: median survival time, higher = longer survival
In short: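 Mice carrying the transplantable tumour receive compound or vehicle. Survival is followed in each arm, and the treated measure is divided by the vehicle measure.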

[1] = dose: 100.0 mg/kg/injection, schedule: Q04DX003 (ip), vehicle: Klucel (hydroxypropylcellulose) (HPC)
[2] = dose: 200.0 mg/kg/injection, schedule: Q04DX003 (ip), vehicle: Klucel (hydroxypropylcellulose) (HPC)
[3] = dose: 400.0 mg/kg/injection, schedule: Q04DX003 (ip), vehicle: Klucel (hydroxypropylcellulose) (HPC)
[4] = dose: 100.0 mg/kg/injection, schedule: Q01DX009 (ip), vehicle: Klucel (hydroxypropylcellulose) (HPC)
[5] = dose: 25.0 mg/kg/injection, schedule: Q01DX009 (ip), vehicle: saline with Tween-80
[6] = dose: 50.0 mg/kg/injection, schedule: Q01DX009 (ip), vehicle: saline with Tween-80
[7] = dose: 100.0 mg/kg/injection, schedule: Q01DX009 (ip), vehicle: saline with Tween-80
[8] = dose: 200.0 mg/kg/injection, schedule: Q01DX009 (ip), vehicle: saline with Tween-80
[9] = dose: 100.0 mg/kg/injection, schedule: Q01DX010 (ip), vehicle: saline
[10] = dose: 200.0 mg/kg/injection, schedule: Q01DX010 (ip), vehicle: saline
[11] = dose: 50.0 mg/kg/injection, schedule: Q01DX009 (ip), vehicle: Klucel (hydroxypropylcellulose) (HPC)
[12] = dose: 12.5 mg/kg/injection, schedule: Q01DX009 (ip), vehicle: Klucel (hydroxypropylcellulose) (HPC)
[13] = dose: 25.0 mg/kg/injection, schedule: Q01DX009 (ip), vehicle: Klucel (hydroxypropylcellulose) (HPC)
[14] = dose: 100.0 mg/kg/injection, schedule: Q01DX009 (ip), vehicle: saline
[15] = dose: 400.0 mg/kg/injection, schedule: Q01DX009 (ip), vehicle: saline with Tween-80

c1ccc(CC(Cc2ccccc2)c2nc3ccccc3s2)cc1
T/C (dose: 75.0 mg/kg/injection, schedule: Q04DX003 (ip), vehicle: saline): 100 % of control
T/C (dose: 150.0 mg/kg/injection, schedule: Q04DX003 (ip), vehicle: saline): 100 % of control
T/C (dose: 300.0 mg/kg/injection, schedule: Q04DX003 (ip), vehicle: saline): 95 % of control

Cc1ccc(OC/C=C/CS(=O)(=O)c2ccc(Cl)cc2)cc1
T/C [1]: 95 % of control
T/C [2]: 95 % of control
T/C [3]: 104 % of control

[NH-]C(CCC(N)=O)C(=O)O.[NH-]C(CCC(N)=O)C(=O)O.[Pt+2] (stereo not drawn)
T/C (dose: 12.5 mg/kg/injection, schedule: Q01DX009 (ip), vehicle: distilled water + Tween-80): 100 % of control
T/C (dose: 25.0 mg/kg/injection, schedule: Q01DX009 (ip), vehicle: distilled water + Tween-80): 100 % of control
T/C (dose: 50.0 mg/kg/injection, schedule: Q01DX009 (ip), vehicle: distilled water + Tween-80): 100 % of control
T/C (dose: 100.0 mg/kg/injection, schedule: Q01DX009 (ip), vehicle: distilled water + Tween-80): 113 % of control

COC(=O)C1C(O)C(C)C(OC(C)=O)C(C)/C=C\C=C(C)C(=O)Nc2c(C)c(OC(C)=O)c3c(c2O)C(=O)C(C)=C2OCOC(=C23)C(C)=CC(C)(O)C(O)C(C)C1O (stereo not drawn)
T/C [4]: 101 % of control
T/C (dose: 200.0 mg/kg/injection, schedule: Q01DX009 (ip), vehicle: Klucel (hydroxypropylcellulose) (HPC)): 106 % of control
T/C (dose: 400.0 mg/kg/injection, schedule: Q01DX009 (ip), vehicle: Klucel (hydroxypropylcellulose) (HPC)): 110 % of control

N/N=C(\N)c1nn[nH]n1
T/C [5]: 96 % of control
T/C [6]: 96 % of control
T/C [7]: 110 % of control
T/C [8]: 86 % of control

Cc1ccc(S(=O)(=O)OCCOC(=O)OCCOS(=O)(=O)c2ccc(C)cc2)cc1
T/C [6]: 99 % of control
T/C [7]: 100 % of control
T/C [8]: 99 % of control

CCC1CN1CC1CO1 (stereo not drawn)
T/C (dose: 8.3 mg/kg/injection, schedule: Q04DX003 (ip), vehicle: Klucel (hydroxypropylcellulose) (HPC)): 110 % of control
T/C (dose: 12.0 mg/kg/injection, schedule: Q04DX003 (ip), vehicle: Klucel (hydroxypropylcellulose) (HPC)): 120 % of control
T/C (dose: 29.0 mg/kg/injection, schedule: Q04DX003 (ip), vehicle: Klucel (hydroxypropylcellulose) (HPC)): 119 % of control
T/C [2]: 204 % of control
T/C (dose: 300.0 mg/kg/injection, schedule: Q04DX003 (ip), vehicle: Klucel (hydroxypropylcellulose) (HPC)): 190 % of control and 218 % of control

CSc1nccc(=O)n1-c1cccc(C(F)(F)F)c1
T/C [1]: 107 % of control
T/C [2]: 107 % of control

CCOC(=O)C(Cc1ccccc1Cl)(Cc1ccccc1Cl)c1ccccc1
T/C [7]: 106 % of control
T/C [8]: 100 % of control

CC(=O)OC(C(=O)c1ccccc1)c1ccccc1 (stereo not drawn)
T/C [1]: 95 % of control
T/C [2]: 104 % of control
T/C [3]: 108 % of control

Cn1c(=O)c2[nH]cnc2n(C)c1=O
T/C (dose: 25.0 mg/kg/injection, schedule: Q01DX010 (ip), vehicle: saline): 95 % of control
T/C (dose: 50.0 mg/kg/injection, schedule: Q01DX010 (ip), vehicle: saline): 104 % of control
T/C [9]: 100 % of control
T/C [10]: 104 % of control

Cc1cc(O)c2c3c(ccc2c1)C(=O)c1c(O)cccc1C3=O
T/C (dose: 0.5 mg/kg/injection, schedule: Q01DX009 (ip), vehicle: Klucel (hydroxypropylcellulose) (HPC)): 109 % of control
T/C (dose: 1.0 mg/kg/injection, schedule: Q01DX009 (ip), vehicle: Klucel (hydroxypropylcellulose) (HPC)): 110 % of control
T/C (dose: 2.0 mg/kg/injection, schedule: Q01DX009 (ip), vehicle: Klucel (hydroxypropylcellulose) (HPC)): 101 % of control
T/C (dose: 4.0 mg/kg/injection, schedule: Q01DX009 (ip), vehicle: Klucel (hydroxypropylcellulose) (HPC)): 101 % of control

CCCCOc1ccc(NC(N)=Nc2ccc(Cl)cc2)cc1
T/C (dose: 3.12 mg/kg/injection, schedule: Q01DX010 (ip), vehicle: carboxymethylcellulose (CMC)): 95 % of control
T/C (dose: 12.5 mg/kg/injection, schedule: Q01DX010 (ip), vehicle: carboxymethylcellulose (CMC)): 90 % of control
T/C (dose: 25.0 mg/kg/injection, schedule: Q01DX010 (ip), vehicle: carboxymethylcellulose (CMC)): 95 % of control
T/C (dose: 25.0 mg/kg/injection, schedule: Q04DX003 (ip), vehicle: saline with Tween-80): 109 % of control
T/C (dose: 50.0 mg/kg/injection, schedule: Q01DX010 (ip), vehicle: carboxymethylcellulose (CMC)): 95 % of control
T/C (dose: 50.0 mg/kg/injection, schedule: Q04DX003 (ip), vehicle: saline with Tween-80): 90 % of control

NCCSC(c1ccccc1)c1ccccc1
T/C [11]: 100 % of control
T/C [4]: 105 % of control

N#Cc1c[nH]n2c(=S)ncnc12
T/C [6]: 107 % of control
T/C [7]: 90 % of control
T/C (dose: 100.0 mg/kg/injection, schedule: Q04DX003 (ip), vehicle: saline with Tween-80): 104 % of control
T/C [8]: 93 % of control
T/C (dose: 200.0 mg/kg/injection, schedule: Q04DX003 (ip), vehicle: saline with Tween-80): 109 % of control
T/C (dose: 300.0 mg/kg/injection, schedule: Q01DX009 (ip), vehicle: saline with Tween-80): 99 % of control

NC(=S)c1c(N)n(C2OC(CO)C(O)C2O)c2ncnc(N)c12 (stereo not drawn)
T/C (dose: 12.5 mg/kg/injection, schedule: Q04DX003 (ip), vehicle: saline): 114 % of control
T/C (dose: 25.0 mg/kg/injection, schedule: Q04DX003 (ip), vehicle: saline): 112 % of control

CC1(C)OC(CI)C(COS(C)(=O)=O)O1 (stereo not drawn)
T/C [6]: 100 % of control
T/C [7]: 91 % of control
T/C [8]: 112 % of control

[Mg+2]
T/C [9]: 100 % of control
T/C [10]: 100 % of control
T/C (dose: 400.0 mg/kg/injection, schedule: Q01DX010 (ip), vehicle: saline): 100 % of control

Nc1ccc(/C=C\c2nccc3ccccc23)cc1
T/C (dose: 0.39 mg/kg/injection, schedule: Q01DX009 (ip), vehicle: saline with Tween-80): 114 % of control
T/C (dose: 0.78 mg/kg/injection, schedule: Q01DX009 (ip), vehicle: saline with Tween-80): 107 % of control
T/C (dose: 0.78 mg/kg/injection, schedule: Q01DX009 (ip), vehicle: saline): 123 % of control
T/C (dose: 1.56 mg/kg/injection, schedule: Q01DX009 (ip), vehicle: saline): 123 % of control
T/C (dose: 3.13 mg/kg/injection, schedule: Q01DX009 (ip), vehicle: saline with Tween-80): 89 % of control
T/C (dose: 3.13 mg/kg/injection, schedule: Q01DX009 (ip), vehicle: saline): 113 % of control

O=C1CCCC(=O)C1C(C[N+](=O)[O-])c1ccccc1 (stereo not drawn)
T/C [12]: 95 % of control and 100 % of control
T/C [13]: 97 % of control and 119 % of control
T/C (dose: 25.0 mg/kg/injection, schedule: Q04DX003 (ip), vehicle: Klucel (hydroxypropylcellulose) (HPC)): 100 % of control
T/C [11]: 88 % of control
T/C (dose: 50.0 mg/kg/injection, schedule: Q04DX003 (ip), vehicle: Klucel (hydroxypropylcellulose) (HPC)): 104 % of control
T/C [4]: 96 % of control and 110 % of control
T/C [1]: 108 % of control

CCOC(=O)/C=C/c1c[nH]c(=O)[nH]c1=O
T/C (dose: 25.0 mg/kg/injection, schedule: Q01DX009 (ip), vehicle: saline): 101 % of control
T/C (dose: 50.0 mg/kg/injection, schedule: Q01DX009 (ip), vehicle: saline): 101 % of control
T/C [14]: 101 % of control
T/C (dose: 100.0 mg/kg/injection, schedule: Q04DX003 (ip), vehicle: saline): 114 % of control
T/C (dose: 200.0 mg/kg/injection, schedule: Q01DX009 (ip), vehicle: saline): 104 % of control
T/C (dose: 200.0 mg/kg/injection, schedule: Q04DX003 (ip), vehicle: saline): 96 % of control
T/C (dose: 400.0 mg/kg/injection, schedule: Q04DX003 (ip), vehicle: saline): 96 % of control

O=C(CC(=O)C(F)(F)C(F)(F)C(F)(F)F)c1csc2ccccc12
T/C (dose: 6.25 mg/kg/injection, schedule: Q01DX009 (ip), vehicle: Klucel (hydroxypropylcellulose) (HPC)): 91 % of control
T/C [12]: 95 % of control
T/C [13]: 95 % of control
T/C [5]: 95 % of control
T/C [11]: 100 % of control
T/C [6]: 100 % of control
T/C [4]: 115 % of control
T/C [7]: 91 % of control
T/C [14]: 115 % of control
T/C [1]: 104 % of control
T/C [2]: 104 % of control
T/C [3]: 109 % of control

CN(C)C(=O)C1CCC1
T/C [7]: 104 % of control
T/C [8]: 90 % of control
T/C [15]: 113 % of control

CCCc1cc(CCC)nc(NNc2nc(CCC)cc(CCC)n2)n1
T/C [7]: 86 % of control
T/C [8]: 100 % of control
T/C [15]: 100 % of control

O=C(/C=C/c1c(Cl)cccc1Cl)c1ccc(Cl)cc1
T/C [7]: 86 % of control
T/C [8]: 90 % of control
T/C [15]: 104 % of control

From PubChem BioAssay AID328 (DTP/NCI, 2004)
